Laboratory results reported in the supplement of paper PMC10627819.
≈ marks a conversion by molar mass, not a printed value.

Tests used:
S. aureus DSM 20231 [1] = assay: fitness (endpoint OD595 vs no drug) (fraction); higher = more growth
Summary of the method: (§1)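 Volumes were 30 µl per well, or 55 µl for S. pneumoniae, in 384-well plates inoculated at OD595 0.01. Media were TSB, LB Lennox or CY at 37 °C, and OD595 was read every 30 min for 14 h with first-reading background subtraction. Fitness is the ratio of optical density at stationary-phase entry to the robust mean of no-drug controls. That ratio is capped at 1.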

B. subtilis 168 [2] = assay: as above
Summary of the method: as §1

S. pneumoniae D39V [3] = assay: as above
Summary of the method: as §1

S. aureus Newman [4] = assay: as above
Summary of the method: as §1

S. aureus DSM 20231 [5] = assay: Bliss interaction score (quartile over a dose matrix) (fitness difference); higher = more antagonism (negative = synergy)
Summary of the method: (§2)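 At entry into stationary phase, OD595 was recorded and divided by the robust mean of the no-drug wells on that plate, with any value above 1 set to 1. This gives the fitness measure used throughout. Single-drug fitness was inferred from combination data, and the Bliss score, observed minus product-expected fitness, is shown as quartiles across technical, biological and donor/recipient replicates.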

B. subtilis 168 [6] = assay: as above
Summary of the method: as §2

S. pneumoniae D39V [7] = assay: as above
Summary of the method: as §2

S. aureus Newman [8] = assay: as above
Summary of the method: as §2

S. aureus DSM 20231 [9] = tested on: S. aureus DSM 20231
S. pneumoniae D39V [10] = tested on: S. pneumoniae D39V
B. subtilis 168 [11] = tested on: B. subtilis 168
S. aureus Newman [12] = tested on: S. aureus Newman
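Wherever Bliss interaction score (quartile over a dose matrix) is given: first quartile when negative (synergy) and third quartile when positive (antagonism).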

CCCCCCCCCC(=O)N[C@@H](Cc1c[nH]c2ccccc12)C(=O)N[C@H](CC(N)=O)C(=O)N[C@@H](CC(=O)O)C(=O)N[C@@H]1C(=O)NCC(=O)N[C@@H](CCCN)C(=O)N[C@@H](CC(=O)O)C(=O)N[C@H](C)C(=O)N[C@@H](CC(=O)O)C(=O)NCC(=O)N[C@H](CO)C(=O)N[C@@H]([C@H](C)CC(=O)O)C(=O)N[C@@H](CC(=O)c2ccccc2N)C(=O)O[C@@H]1C [Daptomycin] + Cc1onc(-c2ccccc2)c1C(=O)N[C@@H]1C(=O)N2[C@@H]1SC(C)(C)[C@@H]2C(=O)O [Oxacillin]
fitness, one replicate
Conditions	first compound 0.125 µg/mL	first compound 0.25 µg/mL	first compound 0.5 µg/mL	first compound 1 µg/mL
B. subtilis 168 [2], partner 0.0078 µg/mL	–	0.878	0.894	0.662
B. subtilis 168 [2], partner 0.0155 µg/mL	–	0.975	0.87	0.657
B. subtilis 168 [2], partner 0.031 µg/mL	–	0.888	0.832	0.302
B. subtilis 168 [2], partner 0.075 µg/mL	0.618	0.686	0.395	–
B. subtilis 168 [2], partner 0.15 µg/mL	0.0439	0.032	0.0273	–
B. subtilis 168 [2], partner 0.3 µg/mL	0.0398	0.0692	0.0429	–
S. aureus DSM 20231 [1], partner 0.0156 µg/mL	0.728	0.737	–	–
S. aureus DSM 20231 [1], partner 0.0312 µg/mL	0.677	0.722	–	–
S. aureus DSM 20231 [1], partner 0.0625 µg/mL	0.531	0.515	–	–

fitness
Conditions	first compound 0.125 µg/mL	first compound 0.25 µg/mL	first compound 0.5 µg/mL	first compound 1 µg/mL	first compound 2 µg/mL	first compound 4 µg/mL
B. subtilis 168 [2], partner 0.002 µg/mL	0.979	0.99	0.938	–	–	–
B. subtilis 168 [2], partner 0.004 µg/mL	0.996	0.959	0.877	–	–	–
B. subtilis 168 [2], partner 0.008 µg/mL	0.899	0.921	0.856	–	–	–
S. aureus DSM 20231 [1], partner 0.0156 µg/mL	–	–	0.864	0.889	0.794	–
S. aureus DSM 20231 [1], partner 0.0312 µg/mL	–	–	0.768	0.716	0.721	–
S. aureus DSM 20231 [1], partner 0.0625 µg/mL	–	–	0.502	0.501	0.537	–
S. aureus Newman [4], partner 0.0156 µg/mL	0.863	0.82	0.785	–	–	–
S. aureus Newman [4], partner 0.0312 µg/mL	0.752	0.751	0.768	–	–	–
S. aureus Newman [4], partner 0.0625 µg/mL	0.656	0.664	0.674	–	–	–
S. pneumoniae D39V [3], partner 0.005 µg/mL	–	–	–	≥ 1	0.999	0.949
S. pneumoniae D39V [3], partner 0.01 µg/mL	–	–	–	0.951	0.97	0.956
S. pneumoniae D39V [3], partner 0.02 µg/mL	–	–	–	0.904	0.908	0.895
S. pneumoniae D39V [3], partner 0.04 µg/mL	–	–	–	0.377	0.382	0.505

Conditions	Bliss interaction score
B. subtilis 168 [6]	0.0697
S. aureus DSM 20231 [5]	-0.0408
S. aureus Newman [8]	0.0785
S. pneumoniae D39V [7]	0.0877

CCCCCCCCCC(=O)N[C@@H](Cc1c[nH]c2ccccc12)C(=O)N[C@H](CC(N)=O)C(=O)N[C@@H](CC(=O)O)C(=O)N[C@@H]1C(=O)NCC(=O)N[C@@H](CCCN)C(=O)N[C@@H](CC(=O)O)C(=O)N[C@H](C)C(=O)N[C@@H](CC(=O)O)C(=O)NCC(=O)N[C@H](CO)C(=O)N[C@@H]([C@H](C)CC(=O)O)C(=O)N[C@@H](CC(=O)c2ccccc2N)C(=O)O[C@@H]1C [Daptomycin] + O=C(O[C@@H]1Cc2c(O)cc(O)cc2O[C@@H]1c1cc(O)c(O)c(O)c1)c1cc(O)c(O)c(O)c1 [EGCG]
fitness
Conditions	partner 6.25 µg/mL	partner 12.5 µg/mL	partner 25 µg/mL	partner 50 µg/mL
B. subtilis 168 [2], first compound 0.125 µg/mL	0.906	–	0.305	–
B. subtilis 168 [2], first compound 0.25 µg/mL	0.895	0.719	–	–
B. subtilis 168 [2], first compound 0.5 µg/mL	0.838	0.598	–	–
S. aureus DSM 20231 [1], first compound 0.5 µg/mL	–	0.814	0.778	0.808
S. aureus DSM 20231 [1], first compound 1 µg/mL	–	0.788	0.721	0.699
S. aureus DSM 20231 [1], first compound 2 µg/mL	–	0.728	0.736	–
S. aureus Newman [4], first compound 0.125 µg/mL	–	0.817	0.79	0.742
S. aureus Newman [4], first compound 0.25 µg/mL	–	0.828	0.815	0.754
S. aureus Newman [4], first compound 0.5 µg/mL	–	0.861	0.843	0.742
S. pneumoniae D39V [3], first compound 1 µg/mL	–	0.909	0.95	–
S. pneumoniae D39V [3], first compound 2 µg/mL	–	0.921	0.906	0.971
S. pneumoniae D39V [3], first compound 4 µg/mL	–	–	–	0.832

B. subtilis 168 [2], first compound 1 µg/mL, one replicate
Conditions	fitness
partner 6.25 µg/mL	0.665
partner 12.5 µg/mL	0.399
partner 25 µg/mL	0.0311

Conditions	Bliss interaction score
B. subtilis 168 [6]	-0.0882
S. aureus DSM 20231 [5]	-0.0959
S. aureus Newman [8]	0.0602
S. pneumoniae D39V [7]	0.0768

C[C@H]1COc2c(N3CCN(C)CC3)c(F)cc3c(=O)c(C(=O)O)cn1c23 [Levofloxacin]
fitness
Conditions	0.002 µg/mL	0.0039 µg/mL	0.0078 µg/mL	0.0312 µg/mL	0.0625 µg/mL	0.125 µg/mL	0.2 µg/mL	0.4 µg/mL	0.8 µg/mL
B. subtilis 168 [2]	0.932	0.928	0.916	0.0401	0.0424	0.0419	–	–	–
S. pneumoniae D39V [3]	–	–	–	–	–	–	0.931	0.789	0.468

Conditions	MIC [µg/mL]
S. aureus DSM 20231 [9]	0.15 (≈ 0.415 µM)
S. pneumoniae D39V [10]	2 (≈ 5.53 µM)

CN(C)C(=O)C(CCN1CCC(O)(c2ccc(Cl)cc2)CC1)(c1ccccc1)c1ccccc1 [Loperamide]
fitness
Conditions	20 µg/mL	25 µg/mL	40 µg/mL	50 µg/mL	80 µg/mL	100 µg/mL
B. subtilis 168 [2]	–	0.651	–	0.254	–	0.03
S. aureus DSM 20231 [1]	–	≥ 1	–	0.925	–	0.0918
S. pneumoniae D39V [3]	≥ 1	–	≥ 1	–	0.869	–

Conditions	MIC [µg/mL]
B. subtilis 168 [11]	100 (≈ 210 µM)
S. aureus DSM 20231 [9]	120 (≈ 252 µM)
S. aureus Newman [12]	120 (≈ 252 µM)
S. pneumoniae D39V [10]	200 (≈ 419 µM)
